These results are taken from patent US20160186209A1, “RECOMBINANT CELLS AND METHODS OF USING SUCH CELLS TO IDENTIFY CIRCADIAN RHYTHM MODULATORS” (University of Memphis Research Foundation, priority 2012, published 2016).

The subject of assay [1] is Differentiated MMH-D3 cells (ERK phosphorylation). The assay is described as follows: Insulin-induced ERK phosphorylation (Western blot), differentiated MMH-D3 cells. Format: cell-based. As to conditions: 0.1 nM insulin for 5 minutes. The procedure:
(§1) FIGS. 1A-1C are graphs showing that fibroblasts, adipocytes, and hepatocytes display bioluminescence rhythms. […] Reporter cells were generated via lentiviral infection of either Per2-dLuc or Bmal1-dLuc luciferase reporter, and infected cell populations were recorded in a LumiCycle. Baseline-subtracted bioluminescence data of both reporter lines are plotted together to show the expected, approximately anti-phasic reporter expression for each cell type. […] Baseline-subtracted bioluminescence data of selected clonal lines representing both reporter types are plotted together to show anti-phasic reporter expression for each cell type. High reproducibility is illustrated by showing data from 24 of the 96 wells for each reporter. […] Differentiated 3T3-L1 and MMH-D3 cells were treated with 0.1, 1, or 10 nM insulin for 5, 15, or 30 minutes, followed by cell lysis and Western blot analysis with ERK and pERK antibodies. […] Data are representative of two independent experiments.
(§2) To develop new models, a battery of luciferase-based reporters that can be introduced into cells via transient transfection or lentiviral transduction was engineered. To explore cell type specificity of clock gene function, new reporter cell lines comprising lentiviral luciferase reporter driven either by the Per2 or Bmal1 promoters were developed. […]

The subject of assay [2] is Differentiated 3T3-L1 cells (ERK phosphorylation). The assay is described as follows: Insulin-induced ERK phosphorylation (Western blot), differentiated 3T3-L1 cells. Format: cell-based, mouse. To be noted: 0.1 nM insulin for 5 minutes. The procedure: as §1, §2

Consider insulin, for which the “ERK activation as reflected by its phosphorylation” value in assay [1] and in assay [2] was “sufficient to activate ERK” throughout.
